Results taken from patent US20010020007A1, “Vitamin preparations for reducing oxygen consumption during physical efforts” (priority 1996, published 2001).
Where “and” joins values, the source holds several entries; their conditions need not be identical. Equal values may be shown once.

What was measured:
[1] = test system: male individuals A and B, trained for endurance cycling; test: Ergometer study b): sulphonylureas, glucocorticoids, Preparation I and combinations, evening before test (Example 39); type: in vivo, human; conditions: individual A, 100 W for 25 min, before sleep, glibenclamide 2.5 mg, glibornuride 25 mg
Procedure: (§1) Analogously to Example 37, the following studies a) to c) were carried out on two male individuals, trained for endurance cycling and kept on a permanently carbohydrate-rich diet; individual A (weighing 67 kg) having a maximum oxygen uptake capacity of 3.3 l and an oxygen transport volume per heart beat of 29 ml (corresponding to 0.6 kJ), and individual B (weighing 74 kg) having a maximum oxygen uptake capacity of 4.5 l and an oxygen transport volume per heart beat of 36 ml (corresponding to 0.75 kJ) . The following preparations were used, in which the indicated amounts correspond to one dose unit and which were obtained by dissolving or suspending the components in water and gelling the mixture:
(§2) Prep. I: 10 mg of D-glucose, 1 mg of thiamine and 10 mg of ascorbic acid heated with 5 mg of agar-agar in 1 ml of water;
(§3) H-Gly-Gly-OH was bought from Novabiochem, Läufelfingen, Switzerland. Insulin was injected subcutaneously, while the other medicaments were ingested alone or together with one of Preparations I-IV.
b) In a second study, antidiabetic sulphonyl urea derivatives, glucocorticoids, Preparation I and combinations thereof were administered before sleep, the evening before the tests. In the tests, individual A was subjected to a workload of 100 W (60 r.p.m.) for 25 minutes (tests A1-A9), and individual B was subjected to a workload of 175 W (60 r.p.m.) for 45 minutes (tests B10-B33).

individual B = test: Ergometer study c): Preparations I-IV with sulphonylureas and/or glucocorticoids, 5 minutes before test (Example 39); type: in vivo, human; conditions: 125 W for 45 min, ingested 5 min before test, chlorpropamide 20 mg, glibornuride 1 mg, glibenclamide 100 μg, dexamethasone 20 μg, prednisolone 200 μg, Prep. one dose unit
Procedure: as §1, §2
(§4) Prep. II: 25 mg of ethanol, 1 mg of thiamine and 50 μg of biotin heated with 5 mg of agar-agar in 1 ml of water;
Prep. III: 25 mg of ethanol, 250 μg of folic acid and 5 μg of cyanocobalamin heated with 5 mg of gelatin in 1 ml of water;
Prep. IV: 10 mg of H-Gly-Gly-OH, 300 μg of folic acid and 5 μg of cyanocobalamin heated 5 mg of gelatin in 1 ml of water.
as §3
c) In a further test series, the effect of Preparations I-IV was tested when applied in combination with sulphonylurea derivatives and/or glucocorticoids immediately before the physical exercise. In these tests, individual B was subjected to a workload of 125 W (60 r.p.m.) for 45 minutes; the drugs and Preparations were ingested 5 minutes before the test.

[2] = test system: male individuals A and B, trained for endurance cycling; test: Ergometer study a): insulin or sulphonylureas alone or with gelatin and/or Preparation I or II, 15 minutes before test (Example 39); type: in vivo, human
Procedure: as §1, §2, §4, §3
a) In a first study, insulin or antidiabetic sulphonylurea derivatives were applied, alone or in combination with gelatin and/or Preparation I or II, 15 minutes before the tests. In the tests, individual A was subjected to a workload of 100 W (60 r.p.m.) for 15 minutes (tests A1-A8), and individual B was subjected to a workload of 175 W (60 r.p.m.) for 10 minutes (tests B9-B29).

[3] = Stimulation of glycogen synthesis and anaerobic glucose breakdown in the muscle by other sugars (description); type: in vivo; conditions: even if taken together with vitamin B1 and vitamin C
Text: D-Maltose can replace the D-glucose in the preparation according to the invention and is even active in considerably lower amounts. […] The conversion of the sucrose or fructose to glucose, however, only takes place in the liver if they have been absorbed from the small intestine.

[4] = individual B, 175 W for 10 min, 15 min before test, 5 I.U. insulin s.c., glibenclamide 2.5 mg alone or 100 μg with gelatin, chlorpropamide 10 mg, gelatin 5 mg, Prep. one dose unit
[5] = individual A, 100 W for 15 min, 2.5 mg glibenclamide 15 min before test

Row | Compound | Heat production [1] | Mean heart rate [1] | Oxygen consumption [1] | Heat production (individual B) [kJ] | Mean heart rate (individual B) [per min.] | Oxygen consumption (individual B) [L] | Heat production [2, 4] | Mean heart rate [2, 4] | Oxygen consumption [2, 4] | Stimulation of glycogen synthesis and of the anaerobic glucose breakdown in the muscle [3] | other results
1 | Cc1ccc(S(=O)(=O)NC(=O)N[C@H]2[C@H]3CC[C@@](C)([C@H]2O)C3(C)C)cc1 [glibornuride] | 600 kJ | 100.0 per min. | 29 L | 2706 | 132.2 | 130 |  |  |  |  | 
2 | insulin |  |  |  |  |  |  | 675 kJ and 696 kJ (2×) | 142.0 per min. and 144.8 per min. (2×) | 32 liter and 33 liter (2×) |  | Effect on heat production and oxygen consumption induced by constant physical work loads ([2]; applied 15 minutes before the test): increase
3 | O=C(CO)[C@@H](O)[C@H](O)[C@H](O)CO [fructose] |  |  |  |  |  |  |  |  |  | ineffective | 
4 | OC[C@H]1O[C@@](CO)(O[C@H]2O[C@H](CO)[C@@H](O)[C@H](O)[C@H]2O)[C@@H](O)[C@@H]1O [sucrose] |  |  |  |  |  |  |  |  |  | ineffective | 
5 | COc1ccc(Cl)cc1C(=O)NCCc1ccc(S(=O)(=O)NC(=O)NC2CCCCC2)cc1 [glibenclamide] | 622 kJ and 613 kJ and 531 kJ | 101.5 per min. and 100.9 per min. and 95.4 per min. | 30 liter (2×) and 26 liter | 2727 | 132.6 | 131 | 724 kJ and 698 kJ | 147.5 per min. and 145.1 per min. | 34 L |  | Heat production [2, 5]: 687 kJ and 700 kJ and 679 kJ; Mean heart rate [2, 5]: 136.4 per min. and 137.8 per min. and 135.4 per min.; Oxygen consumption [2, 5]: 33 liter (2×) and 34 liter
6 | CCCNC(=O)NS(=O)(=O)c1ccc(Cl)cc1 [chlorpropamide] |  |  |  | 2717 | 132.5 | 130 |  |  |  |  | 
